# Experimental data reported in US20040204746A1, “Enhanced bioavailability of nutrients, pharmaceutical agents, and other bioactive substances through laser resonant homogenization or modification of molecular shape or crystalline form” (priority 1999, published 2004).
# What was measured:
# [1] = tested on: murine macrophages; experiment: Nitrite (nitric oxide) production by LPS-stimulated murine macrophages; format: cell-based; conditions: 24 hours; for nitric oxide byproducts compared with control untreated Arg #4: 120 mcg/ml; for Nitrites: determined from optical density; for Nitrites / Mean O.D. ± S.D.: 120 mcg/ml arginine, LPS 1 ng/ml; for Mean O.D. ± S.D.: optical density at 540 nm
# Experimental: Paracelsian in Ithaca, N.Y., an outside independent lab, performed the following bioassays. Each arginine sample was added to 12 wells of murine macrophages to achieve a concentration of 120 mcg/ml. This is the estimated serum concentration for a 70 Kg person after ingesting a 6-gram serving of arginine, a level observed in numerous clinical studies to be associated with a wide range of physiologic benefits. LPS at 1 ng/ml was added to each well and the cells were incubated for 24 hours. The nitrite concentration in each well's supernatant was determined 24 hours after initiation of treatment as a relative measure of nitric oxide production.
# The results are listed in order of relative nitrite production, from greatest to least. The first column is the Arg #, the second the mean plus or minus the standard deviation of the optical density measurement at 540 nm, a measure of nitrite concentration, and the third column the relative production of nitrites expressed in micrograms per ml as determined from optical density.
# [2] = tested on: person with relapsing lupus; experiment: Case report: relapsing lupus treated with the methylation formula; format: in vivo, human; conditions: before the formula
# Text: The exemplary patient had suffered with relapsing lupus for several years. At the time of entry into the methylation formula studies of EXAMPLE 6, they had experienced a relapse of severe disease for several months.
# Their disease was characterized by exquisitely tender blistering and ulcerating lesions on their hands and feet that made it difficult to walk or open a cabinet door without severe pain. Their skin was pallid, they were extremely fatigued with a chronic low energy state, and had suffered extensive hair loss. Their sedimentation rate, a marker for systemic inflammation, was highly elevated at 99, whereas a normal level would be 0-30. […] They declined the use of corticosteroids due to severe treatment side effects during a prior relapse.
# The subject was randomized to the placebo control group and for 3 months had no improvement in condition. In the second phase of the study, they were placed on a high dose of the methylation formula of 6 grams of laser treated betaine plus cofactors daily. […]
# The subject continued on a lower dose of the laser treated methylation formula for 5 more months, reduced to 1-2 grams of the laser treated betaine plus cofactors. […] At the end of fifth month of lower dose treatment, their sedimentation rate had dropped to the very low normal value of 1, the lowest level ever recorded for them.
# [3] = tested on: subject with osteoarthritis; experiment: Pilot test: blood SAMe level and knee pain in a subject with osteoarthritis; format: in vivo, human
# Text: As a pilot test, a subject with osteoarthritis had blood SAMe levels measured while taking SAMe and then while taking a betaine formulation. […] On this level of SAMe ingestion for three months, their blood SAMe level was 4.9 (the normal range for this lab is 4.2-8.2). At this time, SAMe was discontinued and they started a methylation formula with one gram of laser treated betaine plus laser treated metabolic cofactors. The betaine and metabolic co-factors were in the same ratios as in the double blind clinical study formula to be described below.
# [4] = 1600 mg per day, cited from earlier work
# [5] = tested on: subjects that had just survived a first myocardial infarction; conditions: betaine 9 grams daily plus vitamin B12, liver extract, creatine precursor; placebo 25%; cited from earlier work
# [6] = tested on: liver SAMe; conditions: animal studies; cited from earlier work
# [7] = tested on: murine macrophages; experiment: TNF-alpha production by Echinacea-stimulated murine macrophages (ELISA); format: cell-based; conditions: 24 hours, samples at 20 mg/ml with Echinacea
# Experimental: An independent outside lab, Paracelsian in Ithaca, N.Y., performed the following bioassays. A standardized Echinacea sample alone or with 20 mg/ml of Samples 1, 2, or 3 were incubated in the tissue culture media of triplicate wells of murine macrophages for 24 hours after Echinacea stimulation and then assayed for tumor necrosis factor-alpha (TNF-alpha) production in triplicate ELISA wells. Positive controls with lipopolysaccharide (LPS) at 1 ng/ml and negative controls were also assayed in the same manner.
# Those skilled in the art will appreciate that the use of murine macrophages simulates the body's immune response. Adding the herb Echinacea provides a similar response to that of an immune system that is being irritated. A TNF-alpha reading is a good marker for the extent of inflammation. Thus a substance that causes a significant increase in TNF-alpha in the macrophages can be expected to create substantial inflammation in a human body—especially a body suffering from an autoimmune disease such as inflammatory bowel disease, as well as other physiological problems such as systemic lupus erythematosus, rheumatoid arthritis and food allergies.
Compound,nitric oxide byproducts compared with control untreated Arg #4 [1],Nitrites [1],Mean O.D. ± S.D. [1],other results
"N=C(N)NCCC[C@H](N)C(=O)O [Arg #1, L-arginine]",statistically significantly less nitric oxide byproducts,10.6 micrograms per ml,.215 ± .007,
"N=C(N)NCCC[C@H](N)C(=O)O [Arg #2, L-arginine]",statistically significantly less nitric oxide byproducts,10.8 micrograms per ml,.219 ± .008,
"N=C(N)NCCC[C@H](N)C(=O)O [Arg #3, L-arginine]",statistically significantly more nitric oxide byproducts,12.0 micrograms per ml,.232 ± .010,
"N=C(N)NCCC[C@H](N)C(=O)O [Arg #4, L-arginine]",,11.4 micrograms per ml,.224 ± .006,
CCN(CCO)CCCC(C)Nc1ccnc2cc(Cl)ccc12 (stereo not shown) [Plaquenil],,,,relief of lupus symptoms [2]: did little to relieve their symptoms
"C[S+](CC[C@H](N)C(=O)O)C[C@H]1O[C@@H](n2cnc3c(N)ncnc32)[C@H](O)[C@@H]1O (stereo partly shown) [SAMe, S-adenosyl-methionine]",,,,"blood SAMe level ([3]; 800 mg of SAMe daily for three months, normal range 4.2-8.2): 4.9; knee pain ([3]; osteoarthritis): moderate degree of relief; side effects [4]: essentially free of side effects; onset of anti-depressant effects ([4]; tricyclics 4-6 weeks): within one week"
"C[N+](C)(C)CC(=O)O [betaine, N,N,N-trimethylglycine]",,,,mortality after one year [5]: no mortality; rise of liver SAMe levels [6]: up to fourfold
lipopolysaccharide [LPS 1 ng/ml Control],,,,TNF-alpha ± S.D. [7]: 2863 ± 185.7
